Consider one compound from paper PMC8179208, “Unravelling the mechanisms controlling heme supply and demand” (Proceedings of the National Academy of Sciences of the …, 2021).

Structures are written as SMILES.

The target of this test is T1, mAPXmEGFP (Glycine max, UniProt Q43758, K14D/E112K).
T1 construct: gene apx1; monomeric K14D/E112K APX fused to mEGFP reporter; N-terminal His tag, pLEICS-45; pea, Pisum sativum, possible
T1 sequence (Q43758 1-250 K14D/E112K): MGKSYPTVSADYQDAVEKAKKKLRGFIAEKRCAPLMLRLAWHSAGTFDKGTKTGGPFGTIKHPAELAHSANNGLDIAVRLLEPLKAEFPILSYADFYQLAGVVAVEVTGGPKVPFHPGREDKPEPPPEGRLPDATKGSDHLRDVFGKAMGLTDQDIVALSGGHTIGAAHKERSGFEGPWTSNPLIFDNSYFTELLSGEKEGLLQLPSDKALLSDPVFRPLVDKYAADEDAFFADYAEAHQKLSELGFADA
In words: time-correlated single-photon counting fluorescence lifetime titration of apo protein, […] binding model. To be noted: 37 °C, 10 mM potassium phosphate pH 7, 1 uM protein.

Broadly, the Kd is a measure of binding affinity in units of concentration. A low value points to tighter binding. `C=CC1=C(C)C2=Cc3c(C=C)c(C)c4[n]3[Fe]([Cl])[n]3c(c(C)c(CCC(=O)O)c3=CC3=NC(=C4)C(C)=C3CCC(=O)O)=CC1=N2` [heme] displayed an equilibrium dissociation constant (Kd) of 0.022 µM.
